System: 782815-120-R-J1-PDC complex spheroid viability
Experiment: Anticancer human tumor 782815-120-R-J1-PDC patient-derived colon adenocarcinoma cell line growth inhibition [RAS]
Conditions: for IC50: curve of first compound; for viability, T/C: stronger effect = lower value
How it was run: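 Agents were tested in combination matrices in half-log decrements from a top concentration at or near clinical Cmax (10 microM if undetermined). Targets were multi-cell spheroids of tumour lines plus HUVEC and MSC stromal cells.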

[1] = second compound 0.000949 µM, first compound 0.0316 µM
[2] = second compound 0.000949 µM, first compound 0.1 µM
[3] = second compound 0.000949 µM, first compound 0.316 µM
[4] = second compound 0.000949 µM, first compound 1 µM
[5] = second compound 0.000949 µM, first compound 3.16 µM
[6] = second compound 0.000949 µM, first compound 10 µM
[7] = second compound 0.003 µM, first compound 0.0316 µM
[8] = second compound 0.003 µM, first compound 0.1 µM
[9] = second compound 0.003 µM, first compound 0.316 µM
[10] = second compound 0.003 µM, first compound 1 µM
[11] = second compound 0.003 µM, first compound 3.16 µM
[12] = second compound 0.003 µM, first compound 10 µM
[13] = second compound 0.00949 µM, first compound 0.0316 µM
[14] = second compound 0.00949 µM, first compound 0.1 µM
[15] = second compound 0.00949 µM, first compound 0.316 µM
[16] = second compound 0.00949 µM, first compound 1 µM
[17] = second compound 0.00949 µM, first compound 3.16 µM
[18] = second compound 0.00949 µM, first compound 10 µM
[19] = second compound 0.03 µM, first compound 0.0316 µM
[20] = second compound 0.03 µM, first compound 0.1 µM
[21] = second compound 0.03 µM, first compound 0.316 µM
[22] = second compound 0.03 µM, first compound 1 µM
[23] = second compound 0.03 µM, first compound 3.16 µM
[24] = second compound 0.03 µM, first compound 10 µM
[25] = second compound 0.0949 µM, first compound 0.0316 µM
[26] = second compound 0.0949 µM, first compound 0.1 µM
[27] = second compound 0.0949 µM, first compound 0.316 µM
[28] = second compound 0.0949 µM, first compound 1 µM
[29] = second compound 0.0949 µM, first compound 3.16 µM
[30] = second compound 0.0949 µM, first compound 10 µM
[31] = second compound 0.3 µM, first compound 0.0316 µM
[32] = second compound 0.3 µM, first compound 0.1 µM
[33] = second compound 0.3 µM, first compound 0.316 µM
[34] = second compound 0.3 µM, first compound 1 µM
[35] = second compound 0.3 µM, first compound 3.16 µM
[36] = second compound 0.3 µM, first compound 10 µM
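Further: spheroids exposed to compounds for 7 days before reading.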
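Wherever viability, T/C is given: 100% = DMSO vehicle control viability.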

## CC(=O)OC12COC1CC(O)C1(C)C(=O)C(O)C3=C(C)C(OC(=O)C(O)C(NC(=O)OC(C)(C)C)c4ccccc4)CC(O)(C(OC(=O)c4ccccc4)C21)C3(C)C (centres undefined) + CCn1c(-c2cccnc2C(C)OC)c2c3cc(ccc31)N1CCOC(CC(NC(=O)C(C(C)C)N(C)C(=O)C3(F)CCN(C(=O)C#CC(C)(C)N(C)C)CC3)C(=O)N3CCCC(N3)C(=O)OCC(C)(C)C2)C1
Second compound 0.000949 µM
  IC50: < 0.0316 µM
Second compound 0.003 µM
  IC50: < 0.0316 µM
Second compound 0.00949 µM
  IC50: < 0.0316 µM
Second compound 0.03 µM
  IC50: < 0.0316 µM
Second compound 0.0949 µM
  IC50: < 0.0316 µM
Second compound 0.3 µM
  IC50: < 0.0316 µM
[1]
  viability, T/C: 31.7%
[2]
  viability, T/C: 27.2%
[3]
  viability, T/C: 28.5%
[4]
  viability, T/C: 30.2%
[5]
  viability, T/C: 27.4%
[6]
  viability, T/C: 32.5%
[7]
  viability, T/C: 33.1%
[8]
  viability, T/C: 26.5%
[9]
  viability, T/C: 28.2%
[10]
  viability, T/C: 32.6%
[11]
  viability, T/C: 27.9%
[12]
  viability, T/C: 30.2%
[13]
  viability, T/C: 29%
[14]
  viability, T/C: 29.7%
[15]
  viability, T/C: 29.9%
[16]
  viability, T/C: 32.5%
[17]
  viability, T/C: 26.1%
[18]
  viability, T/C: 28.2%
[19]
  viability, T/C: 34.2%
[20]
  viability, T/C: 29.4%
[21]
  viability, T/C: 24%
[22]
  viability, T/C: 27.7%
[23]
  viability, T/C: 29.5%
[24]
  viability, T/C: 27.7%
[25]
  viability, T/C: 28.6%
[26]
  viability, T/C: 29.9%
[27]
  viability, T/C: 25.7%
[28]
  viability, T/C: 31.2%
[29]
  viability, T/C: 26%
[30]
  viability, T/C: 26.7%
[31]
  viability, T/C: 22.7%
[32]
  viability, T/C: 27.9%
[33]
  viability, T/C: 23.3%
[34]
  viability, T/C: 21.9%
[35]
  viability, T/C: 25.2%
[36]
  viability, T/C: 24.4%

## CCC(CC)c1cc(NC2CCC(N)C2)n2nccc2n1 (centres undefined) + CCn1c(-c2cccnc2C(C)OC)c2c3cc(ccc31)N1CCOC(CC(NC(=O)C(C(C)C)N(C)C(=O)C3(F)CCN(C(=O)C#CC(C)(C)N(C)C)CC3)C(=O)N3CCCC(N3)C(=O)OCC(C)(C)C2)C1
Second compound 0.000949 µM
  IC50: 2.93 µM
Second compound 0.003 µM
  IC50: 3.08 µM
Second compound 0.00949 µM
  IC50: 2.86 µM
Second compound 0.03 µM
  IC50: 2.74 µM
Second compound 0.0949 µM
  IC50: 2.85 µM
Second compound 0.3 µM
  IC50: 2.36 µM
[1]
  viability, T/C: 98.6%
[2]
  viability, T/C: 90.5%
[3]
  viability, T/C: 103%
[4]
  viability, T/C: 100%
[5]
  viability, T/C: 46.6%
[6]
  viability, T/C: 2.15%
[7]
  viability, T/C: 97.9%
[8]
  viability, T/C: 92.7%
[9]
  viability, T/C: 97.4%
[10]
  viability, T/C: 96.8%
[11]
  viability, T/C: 48.9%
[12]
  viability, T/C: 1.8%
[13]
  viability, T/C: 101%
[14]
  viability, T/C: 102%
[15]
  viability, T/C: 95.9%
[16]
  viability, T/C: 102%
[17]
  viability, T/C: 45.1%
[18]
  viability, T/C: 2.14%
[19]
  viability, T/C: 94.2%
[20]
  viability, T/C: 96.5%
[21]
  viability, T/C: 103%
[22]
  viability, T/C: 108%
[23]
  viability, T/C: 42.8%
[24]
  viability, T/C: 2.25%
[25]
  viability, T/C: 97.6%
[26]
  viability, T/C: 99%
[27]
  viability, T/C: 97.4%
[28]
  viability, T/C: 106%
[29]
  viability, T/C: 45%
[30]
  viability, T/C: 2.54%
[31]
  viability, T/C: 91.9%
[32]
  viability, T/C: 92.6%
[33]
  viability, T/C: 94.3%
[34]
  viability, T/C: 101%
[35]
  viability, T/C: 34.9%
[36]
  viability, T/C: 3.21%

From PubChem BioAssay AID2060887 (Molecular Pharmacology Branch, DTP, NCI, 2025)
